From patent US20230346961A1, “GLP-1 AND GIP RECEPTOR CO-AGONISTS” (Novo Nordisk A/S, priority 2020, published 2023) come the findings set out here.

Data set [1] concerns the target human glucagon receptor (Homo sapiens, UniProt P47871). Put plainly: cell-based.
Method: (§1) The in vitro functional potency is the measure of target receptor activation in a whole cell assay.
(§2) In vitro functional potency was determined by measuring the response of the target receptor in a reporter gene assay in individual cell lines. […] When the respective receptor is activated, it results in the production of cAMP, which in turn results in expression of the luciferase protein. When assay incubation is completed, luciferase substrate (luciferin) is added resulting in the enzymatic conversion of luciferin to oxyluciferin and producing bioluminescence. The luminescence is measured as the readout for the assay.
(§3) The cells lines used in these assays were BHK cells with BHKTS13 as a parent cell line. The cell lines were derived from a clone containing the CRE luciferase element and were established by further transfection with the respective receptor to obtain the relevant cell line.
(§4) The cells were cultured at 37° C. with 5% CO2 in Cell Culture Medium. They were aliquoted and stored in liquid nitrogen. The cells were kept in continuous culture and were seeded out the day before each assay.
(§5) GLP-1R and GcgR Cell Culture Medium consisted of DMEM medium with 10% FBS, 500 μg/mL G418, and 300 μg/mL hygromycin. GIPR Cell Culture Medium consisted of DMEM medium with 10% FBS, 400 μg/mL G418, and 300 μg/mL hygromycin. Assay Buffer consisted of DMEM w/o phenol red, 10 mM Hepes, 1×Glutamax, 1% ovalbumin, and 0.1% Pluronic F-68 with the addition of HSA at twice the final assay concentration.
(§6) • 1) Cells were plated at 5000 cells/well and incubated overnight in the assay plate. • 2) Cells were washed once in DPBS. • 3) Stocks of the test compounds and reference compounds in concentrations ranging from 100-300 μM were diluted 1:150 in Assay Buffer. Compounds were then diluted 1:10 in column 1 of a 96 deep well dilution plate and then carried across the row creating a 3.5 fold, 12 point dilution curve. • 4) Assay Buffer (50 μl aliquot) with or without HSA was added to each well in the assay plate. • 5) A 50 μl aliquot of compound or blank was transferred from the dilution plate to the assay plate containing the Assay Buffer with or without HSA. • 6) The assay plate was incubated for 3 h in a 5% CO2 incubator at 37° C. 7) The cells were washed once with DPBS. • 8) A 100 μl aliquot of DPBS was added to each well of the assay plate. • 9) A 100 μl aliquot of steadylite plus reagent (light sensitive) was added to each well of the assay plate. • 10) Each assay plate was covered with aluminum foil to protect it from light and shaken at 250 RPM for 30 min at room temperature. • 11) Each assay plate was read in a microtiter plate reader.
(§7) The data from the microtiter plate reader was first regressed in an Excel in order to calculate the x-axis, log scale concentrations based on the individual test compound's stock concentration and the dilutions of the assay. […] The software performs a non-linear regression (log(agonist) vs response). A minimum of two replicates was measured for each sample. The reported values are averages of the replicates.
Data set [2] can be described thus: Pharmacokinetic study in minipigs (terminal half-life after i.v. administration). Type of data set: in vivo. The following applies: female, Göttingen, minipig, plasma, iv; minipigs, i.v. administration, harmonic mean; read-out: Terminal half-life t1/2 (converted). How it is done: The purpose of this example is to determine the half-life in vivo of the derivatives of the present invention after i.v. administration to minipigs, i.e. the prolongation of their time in the body and thereby their time of action. This is done in a pharmacokinetic (PK) study, where the terminal half-life of the derivative in question is determined. By terminal half-life is generally meant the period of time it takes to […] certain plasma concentration, measured after the initial distribution phase. Female Göttingen minipigs were obtained from Ellegaard Göttingen Minipigs (Dalmose, Denmark) approximately 7-14 months of age and weighing from approximately 16-35 kg were used in the studies. The minipigs were housed individually and fed restrictedly once daily with SDS minipig diet (Special Diets Services, Essex, UK). After at 3 weeks of acclimatisation two permanent central venous catheters were implanted in vena cava caudalis in each animal. The animals were allowed 1 week recovery after the surgery, and were then used for repeated pharmacokinetic studies with a suitable wash-out period between successive derivative dosing. The animals were fasted for approximately 18 hours before dosing and from 0 to 4 hours after dosing, but had adlibitum access to water during the whole period. […] Blood samples (for example 0.8 mL) were collected in 8 mM EDTA buffer and then centrifuged at 4° C. and 1942 g for 10 minutes. Plasma was pipetted into Micronic tubes on dry ice and kept at -20° C. until analysed for plasma concentration of the compounds using ELISA, or a similar antibody-based assay, or LCMS. […] (Pharsight Inc., Mountain View, CA, USA), and the resulting terminal half-lives (harmonic mean) determined.

The target in data set [3] is human GLP-1 receptor (Homo sapiens, UniProt P43220). The data set can be described thus: cell-based. The following applies: hGLP-1R.
Method: as §1, §2, §3, §4, §5, §6, §7
Data set [4] deals with T1, mouse GLP-1 receptor (Mus musculus, UniProt O35659).
T1 sequence (O35659 22-463): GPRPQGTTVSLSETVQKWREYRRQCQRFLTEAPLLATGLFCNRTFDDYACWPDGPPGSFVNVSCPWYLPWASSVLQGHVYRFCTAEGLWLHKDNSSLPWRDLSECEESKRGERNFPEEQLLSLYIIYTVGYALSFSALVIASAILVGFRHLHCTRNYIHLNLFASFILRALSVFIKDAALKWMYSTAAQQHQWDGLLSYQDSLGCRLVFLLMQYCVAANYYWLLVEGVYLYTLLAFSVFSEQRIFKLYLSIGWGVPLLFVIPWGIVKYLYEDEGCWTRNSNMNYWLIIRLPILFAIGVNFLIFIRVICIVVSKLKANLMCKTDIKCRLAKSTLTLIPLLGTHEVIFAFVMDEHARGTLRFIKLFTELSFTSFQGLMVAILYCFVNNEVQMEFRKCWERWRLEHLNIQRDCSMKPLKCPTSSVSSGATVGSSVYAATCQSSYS
Method: as §1, §2, §3, §4, §5, §6, §7

The target of data set [5] is T2, mouse GIP receptor (Mus musculus, UniProt Q0P543).
T2 sequence (Q0P543 19-460): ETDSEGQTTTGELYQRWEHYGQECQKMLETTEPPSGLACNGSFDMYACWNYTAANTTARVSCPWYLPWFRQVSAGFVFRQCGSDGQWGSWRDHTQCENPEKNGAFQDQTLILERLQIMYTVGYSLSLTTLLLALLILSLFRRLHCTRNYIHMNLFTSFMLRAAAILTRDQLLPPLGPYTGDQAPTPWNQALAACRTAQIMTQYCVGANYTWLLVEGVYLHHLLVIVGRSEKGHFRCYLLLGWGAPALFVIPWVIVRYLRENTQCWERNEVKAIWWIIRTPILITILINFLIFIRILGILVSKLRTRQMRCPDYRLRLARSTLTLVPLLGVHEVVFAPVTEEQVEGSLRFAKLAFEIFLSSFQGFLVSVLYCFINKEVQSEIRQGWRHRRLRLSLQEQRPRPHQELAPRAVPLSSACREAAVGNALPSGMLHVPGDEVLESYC
The data set can be described thus: cell-based.

Starred links: 1 amine or outer side, 2 acyl side, 3 side chain; linkers in the order of their positions; H or OH if unused. Non-standard residues stand in square brackets, D forms with d. Residues, ends and D or L forms follow the SMILES beside them. Groups on a side chain read outwards from the residue. *: point of attachment. C20 diacid = O=C(O)CCCCCCCCCCCCCCCCCCC(=O)*; γGlu = O=C(O)[C@H](CCC(=O)[*:2])N[*:1]; εLys = N[C@@H](CCCCN[*:1])C(=O)[*:2]; Aib = CC(C)(N)C(=O)O

human GLP-1 receptor, sequence (P43220 24-463): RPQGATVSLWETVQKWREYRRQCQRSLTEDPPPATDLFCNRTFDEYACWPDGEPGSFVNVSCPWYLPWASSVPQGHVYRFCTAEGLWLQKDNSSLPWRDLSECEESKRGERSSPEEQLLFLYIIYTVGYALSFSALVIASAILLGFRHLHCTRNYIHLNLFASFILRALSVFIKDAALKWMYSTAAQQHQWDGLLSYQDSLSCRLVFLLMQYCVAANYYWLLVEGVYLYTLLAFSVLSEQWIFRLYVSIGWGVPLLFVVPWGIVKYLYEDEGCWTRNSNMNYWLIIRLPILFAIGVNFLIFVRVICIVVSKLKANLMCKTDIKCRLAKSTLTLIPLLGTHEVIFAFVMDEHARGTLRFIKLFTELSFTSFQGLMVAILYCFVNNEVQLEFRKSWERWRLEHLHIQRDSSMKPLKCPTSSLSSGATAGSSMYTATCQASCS
human glucagon receptor, sequence (P47871 26-477): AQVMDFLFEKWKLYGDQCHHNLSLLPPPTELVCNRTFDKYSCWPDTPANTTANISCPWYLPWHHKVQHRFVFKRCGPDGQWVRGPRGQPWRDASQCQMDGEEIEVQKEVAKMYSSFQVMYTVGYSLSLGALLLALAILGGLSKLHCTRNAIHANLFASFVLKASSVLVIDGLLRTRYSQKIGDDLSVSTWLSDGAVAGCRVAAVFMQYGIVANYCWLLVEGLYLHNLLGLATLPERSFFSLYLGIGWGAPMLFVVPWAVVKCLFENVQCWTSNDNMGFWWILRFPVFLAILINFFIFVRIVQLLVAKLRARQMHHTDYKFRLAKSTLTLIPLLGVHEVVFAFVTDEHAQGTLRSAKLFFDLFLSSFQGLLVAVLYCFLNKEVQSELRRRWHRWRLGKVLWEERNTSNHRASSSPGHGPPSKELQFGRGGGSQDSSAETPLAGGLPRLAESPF

In general, EC50 refers to the midpoint of the concentration-response curve. Low values mean greater potency, high ones weaker potency. For the compound `CC[C@H](C)[C@H](NC(=O)[C@H](CO)NC(=O)[C@H](Cc1ccc(O)cc1)NC(=O)[C@H](CC(=O)O)NC(=O)[C@H](CO)NC(=O)[C@@H](NC(=O)[C@H](Cc1ccccc1)NC(=O)[C@@H](NC(=O)CNC(=O)[C@H](CCC(=O)O)NC(=O)C(C)(C)NC(=O)[C@@H](N)Cc1ccc(O)cc1)[C@@H](C)O)[C@@H](C)O)C(=O)N[C@@H](Cc1ccc(O)cc1)C(=O)N[C@@H](CC(C)C)C(=O)N[C@@H](CCC(=O)O)C(=O)N[C@@H](CCCCNC(=O)[C@@H](N)CCCCNC(=O)[C@@H](N)CCCCNC(=O)CC[C@H](NC(=O)CCCCCCCCCCCCCCCCCCC(=O)O)C(=O)O)C(=O)N[C@@H](CCC(N)=O)C(=O)N[C@@H](C)C(=O)N[C@@H](C)C(=O)NC(C)(C)C(=O)N[C@@H](CCC(=O)O)C(=O)N[C@@H](Cc1ccccc1)C(=O)N[C@H](C(=O)N[C@@H](CC(N)=O)C(=O)N[C@@H](Cc1c[nH]c2ccccc12)C(=O)N[C@@H](CC(C)C)C(=O)N[C@@H](CC(C)C)C(=O)N[C@@H](C)C(=O)NCC(=O)NCC(=O)N1CCC[C@H]1C(=O)N[C@@H](CO)C(=O)N[C@@H](CO)C(=O)NCC(=O)N[C@@H](C)C(=O)N1CCC[C@H]1C(=O)N1CCC[C@H]1C(=O)N1CCC[C@H]1C(=O)N[C@@H](CO)C(N)=O)C(C)C` [Compound 28] (H-Y[Aib]EGTFTSDYSIYLEK([εLys-εLys-γGlu-C20 diacid])QAA[Aib]EFVNWLLAGGPSSGAPPPS-NH2; N-terminus assumed), the EC50 in data set [1] is over 10 nM; in data set [3] (CRE Luc 0% HSA EC50, 0% HSA), 0.005 nM; in data set [3] (CRE Luc 1% HSA EC50, 1% HSA), 0.356 nM; in data set [4], 2.3 pM; in data set [5], 0.026 nM. In data set [2], the half-life was 4.62 days.
